Measurements published in patent US20240423983A1, “ENHANCEMENT OF CD47 BLOCKADE THERAPY WITH DHFR INHIBITORS” (PF Argentum IP Holdings LLC, priority 2021, published 2024).
Read-outs that look alike come from different tables or passages of the source.

How the values were obtained:
[1] = test system: human non-small cell lung cancer (NSCLC) xenograft; conditions: 2 mg/kg pralatrexate-treated group; cited from earlier work
[2] = test system: NCI-H460 NSCLC xenograft; conditions: cited from earlier work
[3] = test system: human T cell lymphoma cell line H9; experiment: macrophage phagocytosis assay on human lymphoma cell line H9; format: cell-based; conditions: H9 cells (CD47-insensitive), 2 h co-culture with macrophages; FIG. 2; vs single agents or no-treatment control
Protocol: (§1) A macrophage phagocytosis assay was conducted in order to assess the effects of the combination of a DHFRi and CD47 blocking agent as compared to the agents individually on macrophage phagocytosis of human lymphoma cells.
(§2) For the assay, the DHFRi was pralatrexate, and the CD47 blocking agent was an Fc fusion protein comprising soluble SIRPα (TTI-621). The lymphoma cells were human T cell lymphoma cell lines HH (ATCC Ref. CRL-2105) (a mature T cell line from peripheral blood of a patient with aggressive cutaneous T cell leukemia/lymphoma) or H9 (ATCC Ref. HTB-176) (a cutaneous T cell lymphoma). Thus, there were 4 experimental conditions for each lymphoma cell type: A) no treatment; B) pralatrexate only; C) TTI-621 (SIRPα-IgG1 Fc) only; and D) combination of pralatrexate and TTI-621.
(§3) PBMC from normal donors were purchased from BioIVT and informed consent was obtained from all donors. CD14+ monocytes were isolated from PBMCs by positive selection using human monocyte isolation kit. […] Phagocytosis was assessed as % VPD450+ cells of live, single CD14+CD11b+ macrophages by flow cytometry.

[4] = test system: human T cell lymphoma cell line HH; experiment: macrophage phagocytosis assay on human lymphoma cell line HH; format: cell-based; conditions: HH cells (CD47-sensitive), 2 h co-culture with macrophages; FIG. 1; vs single agents or no-treatment control
Protocol: as §1, §2, §3

Molecule: C#CCC(Cc1cnc2nc(N)nc(N)c2n1)c1ccc(C(=O)N[C@@H](CCC(=O)O)C(=O)O)cc1 (some centres unmarked) [pralatrexate, Pralatrexate]
- tumor growth inhibition (TGI) [1]: 38%
- tumor growth inhibition (TGI) ([2]; 1 mg/kg): 34%
- tumor growth inhibition (TGI) ([2]; 2 mg/kg): 52%

Molecule: TTI-621: Fc fusion protein comprising soluble SIRPα (SIRPα-IgG1 Fc), SEQ ID NO: 9; CD47 blocking agent
- percentage phagocytosis (% VPD450+ cells of live, single CD14+CD11b+ macrophages) [3]: not present
- percentage phagocytosis (% VPD450+ cells of live, single CD14+CD11b+ macrophages) [4]: increased phagocytosis
